Entries after “also recorded” stand apart in the source; their conditions may differ. No end group written: not given here.
Assays:
[1] = test system: oligomeric versus monomeric Aβ1-42 (Aβ1-42-biotin bait); experiment: Affinity capture interactome Experiment III (oAβ1-42-biotin vs mAβ1-42-biotin); details: TMT; for Experiment III oAβ1-42-B/mAβ1-42-B Ratio: oligomeric versus monomeric bait, human frontal lobe digitonin extract, pH 8.0, 4°C overnight
[2] = biological target: Aβ1-42-TMR (Homo sapiens, UniProt P05067); experiment: FRET competition assay (Edans-SST14 / Aβ1-42-TMR)
Aβ1-42-TMR, sequence (P05067 672-713 limits assumed): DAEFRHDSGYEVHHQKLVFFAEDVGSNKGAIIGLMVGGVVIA

[3] = biological target: T1, Aβ1-40 (Homo sapiens, UniProt P05067); experiment: ThT fluorescence Aβ1-40 aggregation assay; type: biochemical; details: 5 to 10 times higher peptide concentrations
T1 construct: Aβ1-40 (catalog number AS-24236); purchased Anaspec, Inc. (Fremont, CA, USA) AS-24236; host or cells: synthetic peptide
T1 sequence (P05067 672-711 limits assumed): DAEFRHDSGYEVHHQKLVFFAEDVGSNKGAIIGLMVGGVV
From the text: (§1) Next, Western blot analyses of ThT assay fractions were undertaken without or with prior boiling in SDS. […] Only when SDS was present in the sample buffer, low mass bands appeared in the Western blot that migrated at a level expected for the monomeric Aβ peptide, consistent with the interpretation that these peptides were released from larger oligomeric or fibrillar aggregates under denaturing conditions (see also Figure 5).
(§2) Assay procedures were largely based on a protocol described by Sarah Linse’s group ([Hellstrand et al., 2010]). […] 100 μL of peptide solutions were supplemented with 25 μM thioflavin T (ThT) (catalog number T3516, Sigma-Aldrich Canada, Oakville, ON, Canada) and loaded into 96-Well Half-Area Microplates (catalog number 675096, Greiner Bio One International, Kremsmünster, Austria). The subsequent plate incubation proceeded at 37°C with shaking at 700 rpm for 4 of every 5 min in a microplate reader (CLARIOstar, BMG Labtech, Guelph, ON, Canada) for overall durations specified in individual figures. ThT fluorescence was measured every 5 min at excitation and emission wavelengths of 444 nm and 485 nm, respectively.

[4] = biological target: T2, Aβ1-42 (Homo sapiens, UniProt P05067); experiment: Thioflavin T (ThT) fluorescence Aβ1-42 aggregation assay; type: biochemical
T2 construct: purchased Anaspec, Inc. (Fremont, CA, USA) AS-24224; host or cells: synthetic peptide
T2 sequence (P05067 672-713 limits assumed): as the sequence (P05067 672-713 limits assumed) above
Experimental: as §2

[5] = biological target: T2, Aβ1-42; experiment: Western blot / silver stain detection of Aβ1-42 after incubation with SST14 or CST17; type: biochemical
Experimental: Initially, we were interested in observing the influence of incubation time on sample composition (Figure 5B).

[6] = biological target: T2, Aβ1-42; experiment: Western blot of ThT assay fractions: oligomeric complexes of Aβ1-42; type: biochemical; details: for SDS-stable complex with three Aβ1-42 peptides: five-fold increased Aβ1-42 level
From the text: as §1

[7] = test system: tau phosphorylated at pSer202/pThr205 (AT8) and pThr231 (AT180) in primary hippocampal neurons; experiment: Primary hippocampal neuron tau phosphorylation assay (Western blot); details: for effect on oAβ1-42-induced tau hyperphosphorylation: peptide added together with oAβ1-42; for reduction in tau phosphorylation at AT8, pre-aggregated peptide alone: peptide subjected to pre-aggregation step, no Aβ
[8] = test system: oligomeric Aβ1-42 (oAβ1-42-biotin bait); experiment: Affinity capture interactome Experiment II (C-terminally tethered oAβ1-42-biotin vs biotin); details: enrichment relative to biotin-only negative control; human frontal lobe digitonin extract; TMT; pH 8.0, 4°C overnight
[9] = test system: Aβ1-42 and Aβ17-42 biotin baits; experiment: iTRAQ affinity capture with four baits (biotin, biotin-Aβ1-42, Aβ1-42-biotin, Aβ17-42-biotin); type: binding; details: oAβ1-42-biotin versus N-terminally biotinylated Aβ1-42, Aβ17-42-biotin and biotin; human frontal lobe extract
From the text: This conclusion was strengthened by the fact that this peptide is naturally preceded by a tryptic cleavage site and the exquisite match between observed and in silico predicted fragment ions (Figure 2B). In light of the high intensity ion counts of fragments observed for this peptide and its robust co-enrichment with oAβ1-42-B in three biological replicates (Figure 2C), it first seemed puzzling that the identification of this protein group was not corroborated by other spectra that map to sequences outside of the ‘NFFWK’ sequence stretch. Searching for a plausible explanation, it became apparent that preprosomatostatin and preprocortistatin give rise to cyclic neuropeptide hormones through a series of posttranslational trimming steps, and the ‘NFFWK’ peptide is the only tryptic peptide derived from the mature hormone that is of sufficient length and distinct sequence to be readily identifiable by MS (Figure 2A). […] This conclusion was further corroborated by two additional PSMs that mapped to regions outside the SST14 neuropeptide sequence and one additional five amino acid peptide of the sequence ‘TFTSC’ that could be assigned (albeit not unambiguously) to the mature SST14 neuropeptide sequence itself.

2,4-dienoyl-CoA reductase, mitochondrial: human brain protein
Experiment III oAβ1-42-B/mAβ1-42-B Ratio [1]: 4.32

C[C@H](N)C(=O)NCC(=O)N[C@H]1CSSC[C@@H](C(=O)O)NC(=O)[C@H](CO)NC(=O)[C@H]([C@@H](C)O)NC(=O)[C@H](Cc2ccccc2)NC(=O)[C@H]([C@@H](C)O)NC(=O)[C@H](CCCCN)NC(=O)[C@H](Cc2c[nH]c3ccccc23)NC(=O)[C@H](Cc2ccccc2)NC(=O)[C@H](Cc2ccccc2)NC(=O)[C@H](CC(N)=O)NC(=O)[C@H](CCCCN)NC1=O [SST14, somatostatin-14]
EC50 [2]: 12.7 µM

ATP synthase subunit beta, mitochondrial: human brain protein
Experiment III oAβ1-42-B/mAβ1-42-B Ratio [1]: 2.61

Aβ1-40: synthetic human Aβ1-40, Anaspec AS-24236
lag phase of Aβ1-40 aggregation ([3]; peptide alone): 45 min

CST17: preprocortistatin-derived regulatory peptide, Bachem H-5536
lag phase extension of Aβ (Aβ1-42) aggregation ([4]; 5 to 10 times higher peptide concentrations, SST14 not shown): approximately one hour | concentration dependence of effect on Aβ1-42 aggregation ([4]; ThT, 37°C): concentration-dependent inhibition of Aβ1-42-dependent ThT fluorescence | relative potency versus SST14 in interfering with Aβ1-42 aggregation ([4]; compared with SST14 (at 15 μM in ThT assay)): more potent in this regard than SST14; also recorded: even more pronounced effects on Aβ aggregation than SST14 | inhibition of Aβ1-42-dependent ThT incorporation ([4]; peptide 15 μM, 37°C, 25 μM ThT): completely abrogated ThT incorporation | intensity of HMM 6E10 signals ([5]; 18 hr incubation, 6E10 Western blot): only very weak HMM signals | concentration dependence of 6E10-reactive blot signals ([5]; 18 hr incubation, varying SST14 or CST17 concentration): inverse correlation | masking of Aβ1-42 detection by antibodies 6E10, 4G8, 12F4 ([5]; 18 hr incubation, 4G8 and 12F4 not shown): masked the ability of these antibodies to bind to Aβ1-42 | silver-stain Aβ1-42 signal ([5]; silver-stain of same fractions): relatively stronger Aβ1-42 signals | lag phase extension of Aβ (Aβ1-40) aggregation ([3]; SST14 not shown): approximately one hour | intensity of homodimeric Aβ1-42 bands ([6]; Western blot lanes 17-20): reduced | size of SDS-resistant heterodimeric complex with mAβ1-42 ([6]; Western blot, x-42 and 6E10 antibodies): 5-6 kDa | detection of 50-60 kDa bands by antibody directed against C-terminus of Aβ1-42 ([6]; boiled in SDS): escaped detection with an antibody directed against the C-terminus of Aβ1-42 | SDS-stable complex with three Aβ1-42 peptides ([6]; Western blot): occasionally observed signals that migrated at molecular masses expected for SDS-stable complexes consisting of three Aβ1-42 peptides | effect on oAβ1-42-induced tau hyperphosphorylation [7]: did not prevent the anticipated tau hyperphosphosphorylation-inducing effect of oAβ1-42 exposure | potentiation of tau hyperphosphorylation with monomeric Aβ1-42 ([7]; pre-incubated peptide 4 µM + mAβ1-42 5 µM, 24 hr exposure): potentiate tau hyperphosphorylation

CST29: preprocortistatin-derived regulatory peptide, Bachem H-6458 (QEGAPPQQSARRDRMPCRNFFWKTFSSCK; ends and bridges not checked; cysteine pairing not given here; UniProt O00230 77-105, looked up)
effect on oAβ1-42-induced tau hyperphosphorylation [7]: did not prevent the anticipated tau hyperphosphosphorylation-inducing effect of oAβ1-42 exposure

Carbohydrate kinase domain-containing protein: human brain protein
Experiment III oAβ1-42-B/mAβ1-42-B Ratio [1]: 1.72 | Experiment II oAβ1-42-B/B Ratio [8]: 2.17

Cathepsin D: human brain protein
Experiment III oAβ1-42-B/mAβ1-42-B Ratio [1]: 2.10

Cofilin-1: human brain protein
Experiment III oAβ1-42-B/mAβ1-42-B Ratio [1]: 5.34 | Experiment II oAβ1-42-B/B Ratio [8]: 1.75

Dihydropyrimidinase-related protein 1: human brain protein
Experiment III oAβ1-42-B/mAβ1-42-B Ratio [1]: 3.71 | Experiment II oAβ1-42-B/B Ratio [8]: 1.39

Dihydropyrimidinase-related protein 3: human brain protein
Experiment III oAβ1-42-B/mAβ1-42-B Ratio [1]: 3.40 | Experiment II oAβ1-42-B/B Ratio [8]: 1.42

DnaJ homolog subfamily A member 2: human brain protein
Experiment III oAβ1-42-B/mAβ1-42-B Ratio [1]: 6.10

Interleukin enhancer-binding factor 2: human brain protein
Experiment III oAβ1-42-B/mAβ1-42-B Ratio [1]: 1.41

NFFWK
capture by Aβ baits (iTRAQ signature ion intensity) [9]: the free N-terminus is indeed essential for this peptide-peptide interaction | binding preference for oligomeric versus monomeric Aβ1-42-biotin (in words) ([1]; Experiment III, human frontal lobe extract): binds preferentially to oligomeric (pre-aggregated) but not monomeric Aβ1-42-biotin

Pyruvate kinase isozymes M1/M2: human brain protein
Experiment III oAβ1-42-B/mAβ1-42-B Ratio [1]: 4.33 | Experiment II oAβ1-42-B/B Ratio [8]: 1.68

Ras-related protein Rab-1A: human brain protein
Experiment III oAβ1-42-B/mAβ1-42-B Ratio [1]: 3.28

SST28: longer bioactive version of somatostatin, Anaspec AS-22902 (SANSNPAMAPRERKAGCKNFFWKTFTSC; ends and bridges not checked; cysteine pairing not given here; UniProt P61278 89-116, looked up)
effect on oAβ1-42-induced tau hyperphosphorylation [7]: did not prevent the anticipated tau hyperphosphosphorylation-inducing effect of oAβ1-42 exposure

Transforming protein RhoA: human brain protein
Experiment III oAβ1-42-B/mAβ1-42-B Ratio [1]: 5.74

[Arg8]-vasopressin [AVP]
lag phase extension of Aβ1-42 aggregation ([4]; 15 μM SST14 (or control peptide), SEC-purified Aβ1-42, 25 μM ThT, 37°C, shaking 700 rpm): No delay was observed | formation of 50-60 kDa Aβ1-42 bands (in words) ([6]; 18 hr co-incubation, 6E10): not seen in samples incubated either without these peptides or with AVP | SDS-stable complex with three Aβ1-42 peptides ([6]; Western blot): never observed in fractions lacking SST14 (or CST17) or containing AVP | reduction in tau phosphorylation at AT8, pre-aggregated peptide alone [7]: not seen

bombesin
reduction in tau phosphorylation at AT8, pre-aggregated peptide alone [7]: not seen

oxytocin: control neuropeptide, Anaspec AS-24275
reduction in tau phosphorylation at AT8, pre-aggregated peptide alone [7]: not seen

Source: paper PMC5505701, “Somatostatin binds to the human amyloid β peptide and favors the formation of distinct oligomers” (eLife, 2017)
